From paper PMC10202359, “Nicotinamide N-methyltransferase (NNMT) regulates the glucocorticoid signaling pathway during the early phase of adipogenesis” (Scientific Reports, 2023) come the findings set out here.

The test system of one assay is 3T3-L1 cells. The experiment in a line: Oil Red-O staining of adipocyte differentiation, 3T3-L1. The format is cell-based, mouse. Particulars: for reduction of adipogenesis (Oil Red-O quantification) compared to untreated control: treatment throughout the differentiation process (during adipogenesis). As for the experimental part:
(§1) 3T3-L1 Mouse Embryonic Fibroblasts were purchased from American Type Culture Collection (ATCC CL-173). The cells were propagated and maintained in Dulbecco’s modified Eagle’s medium (DMEM, Gibco) supplemented with 10% calf serum (FCS) at 37 °C in 5% CO2 atmosphere. Subconfluents cells were expanded and utilized for the subsequent experiments at the passages 3–6. To induce differentiation, 2-day post-confluent 3T3-L1 pre-adipocytes were cultured for 48 h with DIM (DMEM supplemented with 10% fetal bovine serum (FBS), 1.0 µM Dexamethasone (G. Biosciences), […] Insulin (Sigma) and 0.5 mM IBMX (Sigma). Two days after induction the DIM medium was removed and the cells were maintained in DMED supplemented with 10% FBS and […] Insulin, which was replaced every 48 h, until the cells became fully differentiated (8–10 days after induction). C3H10T1/2 cells were purchased from American Type Culture Collection (ATCC, clone 8, CCL-226, were grown and induced to differentiate following the same protocol, with cell cultures < 3 passages. Oil Red-O staining was used as previously described. Briefly, cells were fixed for 30 min with 4% formaldehyde, stained with filtered Oil Red solution (0.2% oil red in 40% 2-propanol) and washed 5 times with distilled water. The accumulation of fat droplets in the cells was visualized and photographed under an inverted microscope (DMi1, Leica). The dye was eluted with 100% 2-propanol and quantified spectroscopically at 510 nm (Synergy HT, Bio-Tek).

A further assay deals with C3H10T1/2 cells. Put plainly: Oil Red-O staining of adipocyte differentiation, C3H10T1/2. Particulars: 25 µM, first 48 h of DIM induction or throughout the period of differentiation. The format is cell-based, mouse. As for the experimental part:
as §1, with “The accumulation of fat droplets in the cells was visualized and photographed under an inverted microscope (DMi1, Leica).” left out

The nature of assay [1]: Lilly Open Innovation Drug Discovery high throughput screening. An excerpt: CC-410 chemical structure was initially submitted to the Open Innovation Drug Discovery program[39] (Lilly Research Laboratories, Eli Lilly and Company, Indianapolis, USA), and it was selected for its novelty and drug-like properties, based on cheminformatic evaluation. Briefly, the submitted molecular structure was firstly processed based on the Lilly Medical Chemistry Rules, which are aimed at identifying and eventually excluding from screening those compounds that may interfere with biological assays. Next, structure-based filters, including MW, cLogP, solubility and toxicity among others were analyzed to select molecules with high druggable features. Additionally, the compound was also filtered based on the number of heavy atoms, number of rings, number of aromatic rings, ring size and other physicochemical properties. Solubility and permeability of the compound were also considered for the screening. For molecules passing the cheminformatic evaluation a substance check and comparison with known drugs (both Lilly and PubChem collections) was performed in order to select for novelty. Once the molecule passed this selection it was physically submitted to be tested with a high throughput screening study, querying the activity of the molecule against a wide variety of possible therapeutic targets.

Take `COC(=O)CCC(C)C1CCC2C3C(N)CC4CC(OC(C)=O)CCC4(C)[C@H]3CC(N)C12C` (stereo in doubt) [CC-410, Methyl-(4S)-4-((3S,5S,7S,8S,10R,12R,13S,14R,17S)-3-acetoxy-7,12-diamino-10,13-dimethylhexadecahydro-1H-cyclopenta[a]phenanthren-17-yl) pentanoate]: the “reduction of adipogenesis (Oil Red-O quantification) compared to untreated control” value turned out to be 60% in the assay on 3T3-L1 cells (15 µM) and 80% with 3T3-L1 cells (25 µM). Also, the inhibition of adipogenesis with 3T3-L1 cells (administered in the first 20 h after hormonal induction, highest concentration tested) is 50%. In addition, the effect on adipogenesis entry in the assay on 3T3-L1 cells (continuously dispensed after the early phase of adipogenesis) was “no anti-adipogenic effect was evident”; in the assay on 3T3-L1 cells (treatment during the 48 h of DEX stimulation, followed by IBMX 48 h), “strongly impaired adipogenesis”; in the assay with 3T3-L1 cells (treatment during the early phase (from T0 to 48 h)), “markedly reduced adipogenesis, with levels analogous to continuous treatment”; in the assay with C3H10T1/2 cells, “effectively inhibit adipogenesis”. In addition, the “activity against a wide variety of possible therapeutic targets” value in assay [1] is reported as “exclusive inhibitory activity against human NNMT”.
